Results published in US4011390A, “Semi-synthetic aminocyclitol aminoglycoside antibiotics and methods for the preparation thereof” (Schering-Plough Corporation, priority 1974, dated 1977).
In brackets after ≈: the same amount, converted by molar mass. Read-outs that look alike come from different tables or passages of the source.

Tests used:
Acute Toxicity = conditions: mouse, in vivo
E. coli = assay: Activity against resistant strains; format: cell-based; conditions: E. coli W677/R55 and LA290/R55
Excerpt: (§1) In many instances, bacterial resistance is related to the organism's ability to inactivate the antibacterial agent via enzymatic (biochemical) means. Some species inactivate aminoglycosides antibiotics by acetylating the antibacterial agent, others by phosphorylation and still others by adenylylating. Some strains have several different inactivating capabilities. Further, the inactivation reactions occur at a specific site or sites on the antibacterial agent. We have shown by the compounds of this invention that alteration of sites on the antibiotic molecule not directly involved in inactivation processes can nevertheless frustrate these inactivation processes. […] The tables illustrate that the mutamicins include compounds which are active against strains having different mechanisms of inactivation of gentamicin, sisomicin, kanamycin, neomycin and torbramycin. For example, some mutamicins are effective against strains of E. coli which contain adenylylating R factors such as E. coli W677/R55 and LA290/R55. These E. coli strains are resistant to gentamicin, sisomicin and torbramycin. Some are also effective against gentamicin, tobramycin and kanamycin resistant adenylylating strains of Klebsiella pneumoniae and also kanamycin, neomycin phosphorylating strains of E. coli and Klebsiella pneumoniae. Further, some mutamicins are effective against gentamicin and sisomicin resistant strains of Pseudomonas aeruginosa and gentamicin, sisomicin, tobramycin resistant Providence which is sensitive to kanamycin. Thus, the mutamicins afford a means for combatting strains of bacteria which have already developed a variety of mechanisms for resisting the action of many of the antibiotics known in the art or currently in commercial use.

Pseudomonas aeruginosa [1] = assay: Activity against resistant strains; format: cell-based; conditions: gentamicin and sisomicin resistant strains
Excerpt: as §1

Providence [2] = assay: Activity against resistant strains; format: cell-based; conditions: gentamicin, sisomicin, tobramycin resistant Providence
Excerpt: as §1

Streptococcus pyogenes [3] = assay: Disc test, Bauer-Kirby technique with 10 Mcg. discs; format: cell-based; conditions: Streptococcus pyogenes
Excerpt: (§2) Disc Test Results (Replicate Tests) With The Mutamicins, Sisomicin and
(§3) Bauer-Kirby Technique^1 With 10 Mcg. Discs
(§4) ^1 Bauer, Kirby, Sherris and Turck, American Journal of Clinical

Staphylococcus aureus [4] = assay: as above; format: cell-based; conditions: Staphylococcus aureus
Excerpt: as §2, §3, §4

Bacillus subtilis [5] = assay: as above; format: cell-based; conditions: Bacillus subtilis, ATCC6633, strain ATCC 6633
Excerpt: as §2, §3, §4

Pseudomonas aeruginosa [6] = assay: as above; format: cell-based; conditions: Pseudomonas aeruginosa
Excerpt: as §2, §3, §4

Providence 164 = assay: as above; format: cell-based; conditions: strain 164
Excerpt: as §2, §3, §4

Escherichia coli [7] = assay: as above; format: cell-based; conditions: Escherichia coli, read-out: Zone Size
Excerpt: as §2, §3, §4

Klebsiella pneumoniae [8] = assay: as above; format: cell-based; conditions: Klebsiella pneumoniae
Excerpt: as §2, §3, §4

Streptococcus pyogenes [9] = assay: MIC in Mueller-Hinton Broth pH 7.2; format: cell-based
Excerpt: (§5) In vitro Activity of the Mutamicins and Sisomicin
(§6) MIC's in Mueller-Hinton Broth pH 7.2

Staphylococcus aureus [10] = assay: MIC in Mueller-Hinton Broth pH 7.2; format: cell-based
Excerpt: as §5, §6

Aspergillus niger = assay: MIC in Mueller-Hinton Broth pH 7.2; format: cell-based; conditions: pH 7.2
Excerpt: as §5, §6

Trichophyton rubrum = assay: MIC in Mueller-Hinton Broth pH 7.2; format: cell-based; conditions: pH 7.2
Excerpt: as §5, §6

Serratia = assay: MIC in Mueller-Hinton Broth pH 7.2; format: cell-based; conditions: pH 7.2
Excerpt: as §5, §6

Candida albicans = assay: MIC in Mueller-Hinton Broth pH 7.2; format: cell-based; conditions: pH 7.2
Excerpt: as §5, §6

Proteus rettgeri = assay: MIC in Mueller-Hinton Broth pH 7.2; format: cell-based; conditions: Providencia rettgeri, pH 7.2
Excerpt: as §5, §6

Bacillus subtilis [11] = assay: MIC in Mueller-Hinton Broth pH 7.2; format: cell-based; conditions: ATCC6633, strain ATCC 6633
Excerpt: as §5, §6

Pseudomonas aeruginosa [12] = assay: MIC in Mueller-Hinton Broth pH 7.2; format: cell-based
Excerpt: as §5, §6

Escherichia coli [13] = assay: MIC in Mueller-Hinton Broth pH 7.2; format: cell-based
Excerpt: as §5, §6

Klebsiella pneumoniae [14] = assay: MIC in Mueller-Hinton Broth pH 7.2; format: cell-based
Excerpt: as §5, §6

Salmonella typhimurium = assay: MIC in Mueller-Hinton Broth pH 7.2; format: cell-based; conditions: Salmonella enterica, strain B
Excerpt: as §5, §6

Providence [15] = assay: MIC in Mueller-Hinton Broth pH 7.2; format: cell-based; conditions: strain (Genta. R.) 164
Excerpt: as §5, §6

In the case of `CN[C@@H]1[C@@H](O)[C@@H](O[C@@H]2[C@@H](O)[C@H](O[C@H]3OC(CN)=CC[C@H]3N)[C@@H](N)C[C@H]2N)OC[C@]1(C)O` [Sisomicin, O-2,6-Diamino-2,3,4,6-tetradeoxy-α-D-glycero-hex-4-eno-pryanosyl(1→4)-O-[3-deoxy-4-C-methyl-3-(methylamino)-B-L-arabinopyranosyl(1→6)] -2-deoxy-D-streptamine, reference compound], the LD50 (Acute Toxicity; ip) is reported as 190 mg/kg, the LD50 (Acute Toxicity; iv) is reported as 34 mg/kg and the “activity against strains containing adenylylating R factors” value (E. coli) is reported as “resistant”. For the same molecule, the “activity against resistant strains” value (Pseudomonas aeruginosa [1]) was “resistant”, the “activity against resistant Providence” value (Providence [2]) was “resistant” and the zone of inhibition at 10 µg/disc (Streptococcus pyogenes [3]; strain B-Cruz) was 15 mm. For the same molecule, the zone of inhibition at 10 µg/disc (Streptococcus pyogenes [3]; strain C) was 13 mm, the zone of inhibition at 10 µg/disc (Staphylococcus aureus [4]; ATCC6538P, strain ATCC 6538P) was 25 mm and the zone of inhibition at 10 µg/disc (Staphylococcus aureus [4]; strain 59N) was 28 mm. For the same molecule, the zone of inhibition at 10 µg/disc (Staphylococcus aureus [4]; strain Wood) was 29 mm, the zone of inhibition at 10 µg/disc (Staphylococcus aureus [4]; strain Ziegler) was 26 mm and the zone of inhibition at 10 µg/disc (Bacillus subtilis [5]) was 31 mm. It also gave a zone of inhibition at 10 µg/disc (Pseudomonas aeruginosa [6]; strain Capetown 18) of 14 mm, a zone of inhibition at 10 µg/disc (Pseudomonas aeruginosa [6]; strain D-2) of 24 mm and a zone of inhibition at 10 µg/disc (Pseudomonas aeruginosa [6]; strain St. Michael 413) of 26 mm. The zone of inhibition at 10 µg/disc (Pseudomonas aeruginosa [6]; strain St. Michael 762) was 25 mm, the zone of inhibition at 10 µg/disc (Pseudomonas aeruginosa [6]; strain St. Michael 1262) was 26 mm and the zone of inhibition at 10 µg/disc (Pseudomonas aeruginosa [6]; strain St. Michael 1395) was 26 mm. For the same molecule, the zone of inhibition at 10 µg/disc (Pseudomonas aeruginosa [6]; strain Stone 20) was 27 mm, the zone of inhibition at 10 µg/disc (Pseudomonas aeruginosa [6]; strain Stone 39) was 25 mm and the zone of inhibition at 10 µg/disc (Pseudomonas aeruginosa [6]; strain Stone 130) was 14 mm. The zone of inhibition at 10 µg/disc (Pseudomonas aeruginosa [6]; strain Stone 138) was 10 mm, the zone of inhibition at 10 µg/disc (Providence 164) was 13 mm and the zone of inhibition at 10 µg/disc (Escherichia coli [7]; ATCC10536, strain ATCC 10536, 10 Mcg. discs) was 28 mm. The zone of inhibition at 10 µg/disc (Escherichia coli [7]) was 15 mm, the zone of inhibition at 10 µg/disc (Escherichia coli [7]; strain 589, 10 Mcg. discs) was 24 mm and the zone of inhibition at 10 µg/disc (Escherichia coli [7]; strain JR88, 10 Mcg. discs) was 11 mm. The zone of inhibition at 10 µg/disc (Escherichia coli [7]; strain JR90, 10 Mcg. discs) was 0 mm, the zone of inhibition at 10 µg/disc (Escherichia coli [7]; strain LA290/R55, 10 Mcg. discs) was 13 mm and the zone of inhibition at 10 µg/disc (Escherichia coli [7]; strain Swidinsky 4195, 10 Mcg. discs) was 24 mm. For the same molecule, the zone of inhibition at 10 µg/disc (Klebsiella pneumoniae [8]; strain Ad 17) was 22 mm, the zone of inhibition at 10 µg/disc (Klebsiella pneumoniae [8]; strain Ad 18) was 23 mm and the zone of inhibition at 10 µg/disc (Klebsiella pneumoniae [8]; strain Georgetown 3020) was 13 mm. The zone of inhibition at 10 µg/disc (Klebsiella pneumoniae [8]; strain Georgetown 3694) was 14 mm, the MIC (Streptococcus pyogenes [9]; pH 7.2, strain 27) was 3 µg/mL (≈ 6.7 µM) and the MIC (Streptococcus pyogenes [9]; pH 7.2, strain Alvarez) was 3 µg/mL (≈ 6.7 µM). For the same molecule, the MIC (Streptococcus pyogenes [9]; pH 7.2, strain C) was 3 µg/mL (≈ 6.7 µM), the MIC (Streptococcus pyogenes [9]; pH 7.2, strain Cruz) was 3 µg/mL (≈ 6.7 µM) and the MIC (Streptococcus pyogenes [9]; pH 7.2, strain Karipeds) was 0.8 µg/mL (≈ 1.79 µM). The MIC (Streptococcus pyogenes [9]; pH 7.2, strain Labay) was 3 µg/mL (≈ 6.7 µM), the MIC (Staphylococcus aureus [10]; ATCC6538P, pH 7.2, strain ATCC 6538P) was 0.08 µg/mL (≈ 0.179 µM) and the MIC (Staphylococcus aureus [10]; pH 7.2, strain 59N) was 0.03 µg/mL (≈ 0.067 µM). It also gave an MIC (Staphylococcus aureus [10]; pH 7.2, strain 1118) of 3 µg/mL (≈ 6.7 µM), an MIC (Staphylococcus aureus [10]; pH 7.2, strain Grey) of 3 µg/mL (≈ 6.7 µM) and an MIC (Staphylococcus aureus [10]; pH 7.2, strain Wood) of 0.03 µg/mL (≈ 0.067 µM). For the same molecule, the MIC (Staphylococcus aureus [10]; pH 7.2, strain Ziegler) was 0.08 µg/mL (≈ 0.179 µM), the MIC (Aspergillus niger) was over 25 µg/mL and the MIC (Trichophyton rubrum) was over 25 µg/mL. It also gave an MIC (Serratia) of 0.8 µg/mL (≈ 1.79 µM), an MIC (Candida albicans) of over 25 µg/mL and an MIC (Proteus rettgeri) of 0.8 µg/mL (≈ 1.79 µM). The MIC (Bacillus subtilis [11]) was 0.03 µg/mL (≈ 0.067 µM), the MIC (Pseudomonas aeruginosa [12]; pH 7.2) was over 25 µg/mL and the MIC (Pseudomonas aeruginosa [12]; pH 7.2, strain 762, Mueller-Hinton Broth pH 7.2, read-out: MIC) was 0.3 µg/mL (≈ 0.67 µM). It also gave an MIC (Pseudomonas aeruginosa [12]; pH 7.2, strain 1262, Mueller-Hinton Broth pH 7.2, read-out: MIC) of 0.8 µg/mL (≈ 1.79 µM), an MIC (Pseudomonas aeruginosa [12]; pH 7.2, strain 1395, Mueller-Hinton Broth pH 7.2, read-out: MIC) of 0.08 µg/mL (≈ 0.179 µM) and an MIC (Pseudomonas aeruginosa [12]; pH 7.2, strain D-2, Mueller-Hinton Broth pH 7.2, read-out: MIC) of 0.08 µg/mL (≈ 0.179 µM). For the same molecule, the MIC (Pseudomonas aeruginosa [12]; pH 7.2, strain Genta. acetyl Capetown 18, Mueller-Hinton Broth pH 7.2, read-out: MIC) was 7.5 µg/mL (≈ 16.8 µM), the MIC (Pseudomonas aeruginosa [12]; pH 7.2, strain Genta. acetyl Stone 130, Mueller-Hinton Broth pH 7.2, read-out: MIC) was 17.5 µg/mL (≈ 39.1 µM) and the MIC (Pseudomonas aeruginosa [12]; pH 7.2, strain NRRL B3223, Mueller-Hinton Broth pH 7.2, read-out: MIC) was 0.08 µg/mL (≈ 0.179 µM). It also gave an MIC (Pseudomonas aeruginosa [12]; pH 7.2, strain Stone 20, Mueller-Hinton Broth pH 7.2, read-out: MIC) of 0.3 µg/mL (≈ 0.67 µM), an MIC (Pseudomonas aeruginosa [12]; pH 7.2, strain Stone 39, Mueller-Hinton Broth pH 7.2, read-out: MIC) of 0.8 µg/mL (≈ 1.79 µM) and an MIC (Pseudomonas aeruginosa [12]; pH 7.2, strain Stone 138, Mueller-Hinton Broth pH 7.2, read-out: MIC) of 7.5 µg/mL (≈ 16.8 µM). It also gave an MIC (Escherichia coli [13]; ATCC10536, pH 7.2, strain ATCC 10536) of 0.08 µg/mL (≈ 0.179 µM), an MIC (Escherichia coli [13]; pH 7.2, strain Baker 2) of 0.3 µg/mL (≈ 0.67 µM) and an MIC (Escherichia coli [13]; pH 7.2, strain Fl4-Bk) of 0.3 µg/mL (≈ 0.67 µM). The MIC (Escherichia coli [13]; pH 7.2, strain Genta. adenyl LA290-R55) was 17.5 µg/mL (≈ 39.1 µM), the MIC (Escherichia coli [13]; pH 7.2, strain Genta. adenyl W677/R55) was 7.5 µg/mL (≈ 16.8 µM) and the MIC (Escherichia coli [13]; pH 7.2, strain Kana. phosphor. 589) was 0.8 µg/mL (≈ 1.79 µM). For the same molecule, the MIC (Escherichia coli [13]; pH 7.2, strain Kana. phosphor. C-13) was 0.3 µg/mL (≈ 0.67 µM), the MIC (Escherichia coli [13]; pH 7.2, strain Tobra. R 4195) was 0.8 µg/mL (≈ 1.79 µM) and the MIC (Klebsiella pneumoniae [14]; pH 7.2, strain Ad 18) was 0.08 µg/mL (≈ 0.179 µM). It also gave an MIC (Klebsiella pneumoniae [14]; pH 7.2, strain Genta. adenyl 121) of 0.08 µg/mL (≈ 0.179 µM), an MIC (Klebsiella pneumoniae [14]; pH 7.2, strain Genta. adenyl 3020) of 7.5 µg/mL (≈ 16.8 µM) and an MIC (Klebsiella pneumoniae [14]; pH 7.2, strain Genta. adenyl 3694) of 7.5 µg/mL (≈ 16.8 µM). It also gave an MIC (Klebsiella pneumoniae [14]; pH 7.2, strain Kana. phos. Ad 22) of 0.3 µg/mL (≈ 0.67 µM), an MIC (Salmonella typhimurium) of 0.3 µg/mL (≈ 0.67 µM) and an MIC (Providence [15]) of over 25 µg/mL.
